In patent US20250388542A1, “ANALOGUES OF PENTAMIDINE AND USES THEREFOR” (Auransa Inc., priority 2018, published 2025):

Tests used:
HEP3B2.7-1 = assay: CellTiter-Glo cell viability, liver cell lines, 8 days; format: cell-based; settings: HEP3B2.7-1, Table 5, similar experiment
Experimental: (§1) The objective of this study is to investigate the effect of Compound 1 on cell viability of various types of liver cancer. Ten (10) different liver cancer cell lines were employed in the study. Each liver cell line shown in Table 4 was treated with Compound 1, pentamidine, as reference control, a standard of care (cisplatin) and culture medium contains 0.2% [v/v] DMSO vehicle control and IC50 values were obtained as described above. The raw data values from the CellTiter-Glo™ cell viability assay expressed in relative luminescence units were normalized to the vehicle for each individual plate, and any reduction in luminescence indicated a decrease in viability (%). The data was analyzed in GraphPad PRISM using a non-linear sigmoidal plot with variable slope (asymmetric four-point linear regression), and an IC50 value for each compound was generated. The experiment tested pentamidine, compound 1, and standard-of-care control Cisplatin in full growth media for 8 days. Cells were initially treated with the test compounds on Day 0, and the cells were then replenished with fresh compound dilutions on Day 3. Pentamidine, Compound 1, and cisplatin were tested at 9 concentration points; 100, 33.33, 11.11, 3.70, 1.23, 0.41, 0.14, 0.05, and 0.02 μM (final DMSO concentration=0.5%). In particular, the IC50 values of pentamidine and Compound 1 were 0.8 and 0.6 μM in Hep3B-luc, respectively.

SK-HEP-1 = assay: as above; format: cell-based; settings: Homo sapiens, SK-HEP1, SK-HEP-1, Table 5, similar experiment
Experimental: as §1

Human microsomal CL rate = format: in vitro ADME; settings: human microsomes
NCI-H69 = assay: CellTiter-Glo luminescent cell viability assay; format: cell-based; settings: Homo sapiens
Experimental: (§2) The objective of this study is to investigate potential cell killing effect of Compounds 1-15 on 3 cancer cell lines. 50% inhibition concentration (IC50) was determined for these compounds in various cancer cell lines using CellTiter-Glo™ luminescent cell viability assay at different compound concentrations. Each cell line (e.g., NCI-H209; NCI-H69; and SW1271) was treated with Compounds 1-15 and culture medium contains 0.2% [v/v] DMSO vehicle control. All the cells were cultured in the media supplemented with 10-20% fetal bovine serum at 37° C., 5% CO2 and 95% humidity.

SW1271 = assay: CellTiter-Glo luminescent cell viability assay; format: cell-based
Experimental: as §2

NCI-H209 = assay: CellTiter-Glo luminescent cell viability assay; format: cell-based; settings: Homo sapiens
Experimental: as §2

[1] = tested on: A549-NLR cells with anti-CD3 stimulated PBMC; assay: Primary human T cell killing assay; format: cell-based
Experimental: In this study, A549-NLR cells were cultured alone or with PBMC's isolated from blood of three healthy donors in the presence of anti-CD3 stimulation. […] A549 growth was quantified by enumerating NucLight+ cells and A549 apoptosis by Caspase-3/7+ expression (colocalised to NucLight signal) every 2 hours for 96 hours.
All test conditions were applied to A549-NLR cells in the presence of stimulated PBMC. The number of A549 cells was tracked by IncuCyte live cell imaging over 96 hrs. The number of A549 cells at each time-point was counted and expressed as a percentage of the starting number (on a per well basis). At each time-point, the frequency of target cell apoptosis was quantified.

[2] = Pharmacokinetics in liver and tissues after oral administration; format: in vivo, mice; settings: p.o.
Experimental: Compound 1 (20 mg per kg), Compound 5 (10 mg per kg), and pentamidine (20 mg per kg) were tested for their PK. Tissue samples were collected as described above in Example 23. Briefly, blood samples (approximately […]) were collected under light isoflurane anesthesia from retro orbital plexus of mice at 0.5, 1, 3, 8, 48 and 72 hr. Plasma samples were separated by centrifugation at 2,000×g for 6 minutes and stored below −70±10° C. until bioanalysis. Immediately after collection of blood, animals were euthanized using excess CO2 asphyxiation and samples were collected from set of five mice at each time point. Collected tissue samples were immediately dipped and rinsed three times in ice cold PBS (for 5-10 seconds/rinse using ˜5-10 mL fresh PBS in disposable petri dish for each rinse) and dried on blotting paper. Tissue samples were homogenized using ice-cold phosphate buffer saline (pH7.4) and homogenates were stored below −70±10° C. until analysis. Total homogenate volume was three times the tissue weight except for liver samples, total homogenate volume was ten times the liver weight. Bioanalysis process was determined by fit-for-purpose LC-MS/MS method.
Calibration standards were prepared by spiking the test compound into blank plasma. 10 μL of working calibration standard was spiked into 190 μL of blank Mice Plasma or tissue homogenate to generate linearly spiked calibration standards. Calibrator concentrations were 5,000, 2,000, 1,000, 200, 100, 20, 10, 2 and 1 ng/mL. Calibration standard samples were processed along with the test samples. Twenty-five μL aliquots of plasma or tissue homogenate test samples were treated with 100 μL of acetonitrile containing internal standard (500 ng/mL Glipizide). Samples were vortexed for 5 minutes. Samples were centrifuged for 10 minutes at a speed of 4000 rpm at 4° C. Following centrifugation, 100 μL of clear supernatant was transferred in 96-well plates of and analyzed using LC-MS/MS. Chromatographic separation was achieved using a Kintex Polar column (C18, 100×4.6 mm, 5μ) and column oven temperature 45° C. For compound 1 diHCl the mobile phase A was water with 0.1% formic acid in Acetonitrile; mobile phase B was 10 mM ammonium formate. However, the mobile phase for pentamidine and Compound 5 mobile phase A was water with 0.1% formic acid and mobile phase B acetonitrile with 0.1% formic acid.
The gradient program for Compound 1 was as follows: 5% B (1-2.40 min), 90% B (2.60-3.00 min), and the initial for B was 90%. The retention rate was 1.47 per minute and the internal standard Glipizide was 1 per 9 minutes. The column was maintained at 45° C. For pentamidine and Compound 5, analysis was performed using 233 MassSpec by AB Sciex API5000 with Turbo Ion Spray interface operating in a positive ionization mode. Quantification was performed using multiple reaction monitoring (MRM) method with the transitions of (m/z) 328 à (m/z) 311 for Compound 5 and (m/z) 548 à (m/z) 366 for Edoxaban (internal standard). While, for pentamidine (m/z) 341 à (m/z) 324 and (m/z) 548 à (m/z) 366 for Verapmil (internal standard).
The gradient program for Compound 5 was as follows: 10% B (0-0.2 min), 95% B (1.5-2 min), the initial for B was 10% and it stopped at 2.6 mins. The flow rate was 0.5 mL/min. The gradient program for pentamidine was as follows: 10% B (0-0.2 min), 95% B (1.4-2 min), the initial for B was 10% and it stopped at 2.5 mins. The flow rate was 0.5 mL/min.

SMILES	microsomal CLint (Human microsomal CL rate) [µL/min/mg]	IC50 (NCI-H69) [µM]	further results
N=C(N)c1ccc(OCCCCCOc2cnc(C(=N)N)cn2)cc1 [Compound 4, 5-((5-(4-carbamimidoylphenoxy)pentyl)oxy)pyrazine-2-carboximidamide]	–	–	IC50 (HEP3B2.7-1): 1.91 µM; IC50 (SK-HEP-1): 5.95 µM
N=C(N)c1cccc(CCCCCCCc2cccc(C(=N)N)n2)n1 [Compound 8, 6,6′-(heptane-1,7-diyl)dipicolinimidamide]	11	0.687	–
N=C(N)c1ccc(OCCCCCOc2ccc(C(=N)N)cn2)cc1 [Compound 2, 6-((5-(4-carbamimidoylphenoxy)pentyl)oxy)nicotinimidamide]	9.8	3.48	IC50 (SW1271): 1.6 µM; IC50 (NCI-H209): 9.38 µM
N=C(N)c1ccc(CCCCCCCc2ccc(C(=N)N)cn2)nc1 [Compound 10, 6,6′-(heptane-1,7-diyl)dinicotinimidamide]	–	22.2	–
N=C(N)c1cnc(OCCCCCOc2cnc(C(=N)N)cn2)cn1 [Compound 7, 5,5′-(pentane-1,5-diylbis(oxy))bis(pyrazine-2-carboximidamide)]	–	0.804	immune cell-mediated A549 cell apoptosis (Caspase-3/7+) ([1]; 0.3, 1 and 3 μM, three donors, 96 hours): enhancement of immune cell-mediated A549 cell apoptosis in 2 of 3 donors in a dose dependent manner; effect compared with positive control (IL-2) ([1]; highest concentration tested (3 μM)): comparable effect to the positive control (IL-2)
N=C(N)c1cc(OCCCCCOc2ccnc(C(=N)N)c2)ccn1 [Compound 21]	5.1	–	–
N=C(N)c1cccc(OCCCCCOc2ccnc(C(=N)N)c2)c1 [Compound 15, 4-(5-(3-carbamimidoylphenoxy)pentyloxy)picolinimidamide]	3.2	0.49	–
N=C(N)c1ccc(OCCCCOc2ccc(C(=N)N)nc2)cn1 [Compound 16, 5,5′-(butane-1,4-diylbis(oxy))dipicolinimidamide]	4.6	–	–
N=C(N)c1ccc(OCCCCOc2ccc(C(=N)N)nc2)cc1 [Compound 5, 5-(4-(4-carbamimidoylphenoxy)butoxy)picolinimidamide]	3.9	0.876	IC50 (HEP3B2.7-1): 0.207 µM; IC50 (SK-HEP-1): 0.73 µM; exposure to the liver vs pentamidine (20 mpk) ([2]; Compound 1 20 mpk, Compound 5 10 mpk): greater exposure to the liver than pentamidine; half-life relative to Compound 1 ([2]; liver): approximately 3 fold; half-life vs pentamidine ([2]; liver): higher half-life than pentamidine; tissue exposure ([2]; liver, small intestine, ileum): increased exposure in the liver as well as small intestine and ileum; exposure to the plasma ([2]; plasma vs other tissues): low in comparison to other tissues; IC50 (NCI-H209): 2.78 µM
N=C(N)c1cncc(CCCCCCCc2cncc(C(=N)N)c2)c1 [Compound 9, 5,5′-(heptane-1,7-diyl)dinicotinimidamide]	13	5.28	–
N=C(N)c1ccc(OCCCCCOc2ccnc(C(=N)N)c2)cn1 [Compound 12, 4-((5-((6-carbamimidoylpyridin-3-yl)oxy)pentyl)oxy)picolinimidamide]	7.5	1.58	–

The next lines start with results.

microsomal CLint (Human microsomal CL rate) [µL/min/mg]	IC50 (NCI-H69) [µM]	SMILES	further results
9.5	–	N=C(N)c1ccc(CC[C@@H]2CCC[C@H](CCc3ccc(C(=N)N)nc3)C2)cc1 [Compound 18, 5-{2-[(1R,3S)-3-[2-(4-carbamimidoylphenyl)ethyl]cyclohexyl]ethyl}pyridine-2-carboximidamide]	–
4	–	N=C(N)c1ccc(OCCCCCOc2ccc(C(=N)N)nc2)cn1 [Compound 20, 5-({5-[(6-carbamimidoylpyridin-3-yl)oxy]pentyl}oxy)pyridine-2-carboximidamide]	–
8.1	–	N=C(N)c1ccc(OCCCOc2ccc(C(=N)N)nc2)cc1 [Compound 17, 5-(3-(4-carbamimidoylphenoxy)propoxy)picolinimidamide]	–
15.3	1.1	N=C(N)c1ccc(O[C@H]2CC[C@@H](Oc3ccc(C(=N)N)nc3)CC2)cc1 [Compound 14, 5-(((1s,4s)-4-(4-carbamimidoylphenoxy)cyclohexyl)oxy)picolinimidamide]	–
11	2.11	N=C(N)c1ccc(O[C@H]2CC[C@H](Oc3ccc(C(=N)N)nc3)CC2)cc1 [Compound 13, 5-(((1r,4r)-4-(4-carbamimidoylphenoxy)cyclohexyl)oxy)picolinimidamide]	–
27.7	–	N=C(N)c1ccc(OCCCCCOc2ccnc(C(=N)N)c2)cc1 [Compound 19, 4-{[5-(4-carbamimidoylphenoxy)pentyl]oxy}pyridine-2-carboximidamide]	IC50 (HEP3B2.7-1): 0.222 µM; IC50 (SK-HEP-1): 0.84 µM
5.2	0.62	N=C(N)c1cccc(OCCCCCOc2ccc(C(=N)N)nc2)c1 [Compound 11, 5-(5-(3-carbamimidoylphenoxy)pentyloxy)picolinimidamide]	–
–	2.91	N=C(N)c1ccc(OCCCCCOc2cnc(C(=N)N)nc2)cc1 [Compound 3, 5-((5-(4-carbamimidoylphenoxy)pentyl)oxy)pyrimidine-2-carboximidamide]	IC50 (SW1271): 3.47 µM; IC50 (NCI-H209): 3.47 µM
